What is called IC50 is the point on the concentration scale where inhibition reaches its midpoint.

We go through 24 compounds from patent US10233182B2, “Substituted spirocyclic inhibitors of autotaxin” (X-Rx, Inc., priority 2014, dated 2019).

Structures can show the parent of a compound that is named as a salt.

The target of the assay is Autotaxin (Homo sapiens (Human), UniProt Q13822). The assay is described as follows: Autotaxin LPC Cascade Assay. The class given is biochemical. As to conditions: Autotaxin 5 nM, LPC 100 μM, choline oxidase/HRP/Ampliflu Red fluorescence read-out, 2% DMSO, RT; read-out: IC50 ATX Activity. A digest of the protocol:
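Choline liberated from LPC by autotaxin during 1 h, after a 10-min RT compound preincubation, was converted through choline oxidase/HRP to a fluorescent Ampliflu Red product.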
On to `CC(C)[C@@H](NC(=O)c1cc(OC(F)F)ccc1F)C(=O)N1CCC2(CC1)C(=O)N(C)C(=O)N2c1ccc2[nH]ncc2c1` [Example 64, (R)—N-(1-(1-(1H-Indazol-5-yl)-3-methyl-2,4-dioxo-1,3,8-triazaspiro[4.5]decan-8-yl)-3-methyl-1-oxobutan-2-yl)-5-(difluoromethoxy)-2-fluorobenzamide], for which the 50% inhibitory concentration (IC50) is less than 500 nM.
Next, `CC(C)[C@@H](NC(=O)c1cc(Cl)ccc1Cl)C(=O)N1CCC2(CC1)C(=O)N(C)C(=O)N2c1ccc2[nH]ncc2c1` [Example 65, (R)—N-(1-(1-(1H-Indazol-5-yl)-3-methyl-2,4-dioxo-1,3,8-triazaspiro[4.5]decan-8-yl)-3-methyl-1-oxobutan-2-yl)-2,5-dichlorobenzamide]: not below 1000 nM; `CC(C)[C@@H](NC(=O)c1cc(F)ccc1F)C(=O)N1CCC2(CC1)C(=O)N(C)C(=O)N2c1ccc2[nH]ncc2c1` [Example 66, (R)—N-(1-(1-(1H-Indazol-5-yl)-3-methyl-2,4-dioxo-1,3,8-triazaspiro[4.5]decan-8-yl)-3-methyl-1-oxobutan-2-yl)-2,5-difluorobenzamide]: 500 to 1000 nM.
Consider `CC(C)[C@@H](NC(=O)C12CC3CC(CC(C3)C1)C2)C(=O)N1CCC2(CC1)C(=O)N(C)C(=O)N2c1ccc2[nH]ncc2c1` [Example 67, (R)—N-(1-(1-(1H-Indazol-5-yl)-3-methyl-2,4-dioxo-1,3,8-triazaspiro[4.5]decan-8-yl)-3-methyl-1-oxobutan-2-yl)-1-admantanecarboxly amide], for which the IC50 is not below 1000 nM.
The result for `CC(C)[C@@H](NC(=O)c1cc(C(F)(F)F)ccc1Cl)C(=O)N1CCC2(CC1)C(=O)N(C)C(=O)N2c1ccc2[nH]ncc2c1` [Example 68, (R)—N-(1-(1-(1H-Indazol-5-yl)-3-methyl-2,4-dioxo-1,3,8-triazaspiro[4.5]decan-8-yl)-3-methyl-1-oxobutan-2-yl)-2-chloro-5-(trifluoromethyl)benzamide] reads not below 1000 nM; that for `CC(C)[C@H](NC(=O)c1cc(C(F)(F)F)ccc1F)C(=O)N1CCC2(CC1)C(=O)N(C)C(=O)N2c1ccc2[nH]ncc2c1` [Example 69, (S)—N-(1-(1-(1H-Indazol-5-yl)-3-methyl-2,4-dioxo-1,3,8-triazaspiro[4.5]decan-8-yl)-3-methyl-1-oxobutan-2-yl)-2-fluoro-5-(trifluoromethyl)benzamide], not below 1000 nM.
For the compound `CN1C(=O)N(c2ccc3[nH]ncc3c2)C2(CCN(C(=O)CNC(=O)c3cc(C(F)(F)F)ccc3F)CC2)C1=O` [Example 70, N-(2-(1-(1H-Indazol-5-yl)-3-methyl-2,4-dioxo-1,3,8-triazaspiro[4.5]decan-8-yl)-2-oxoethyl)-2-fluoro-5-(trifluoromethyl)benzamide], the IC50 is not below 1000 nM.
The result for `CN1C(=O)N(c2ccc3[nH]ncc3c2)C2(CCN(C(=O)C3(NC(=O)c4cc(C(F)(F)F)ccc4F)CC3)CC2)C1=O` [Example 71, N-(1-(1-(1H-Indazol-5-yl)-3-methyl-2,4-dioxo-1,3,8-triazaspiro[4.5]decane-8-carbonyl)cyclopropyl)-2-fluoro-5-(trifluoromethyl)benzamide] reads not below 1000 nM; that for `C[C@@H](NC(=O)c1cc(C(F)(F)F)ccc1F)C(=O)N1CCC2(CC1)C(=O)N(C)C(=O)N2c1ccc2[nH]ncc2c1` [Example 72, (R)—N-(1-(1-(1H-Indazol-5-yl)-3-methyl-2,4-dioxo-1,3,8-triazaspiro[4.5]decan-8-yl)-1-oxopropan-2-yl)-2-fluoro-5-(trifluoromethyl)benzamide], not below 1000 nM; that for `CN1C(=O)N(c2ccc3[nH]ncc3c2)C2(CCN(C(=O)C(C)(C)NC(=O)c3cc(C(F)(F)F)ccc3F)CC2)C1=O` [Example 74, N-(1-(1-(1H-Indazol-5-yl)-3-methyl-2,4-dioxo-1,3,8-triazaspiro[4.5]decan-8-yl)-2-methyl-1-oxopropan-2-yl)-2-fluoro-5-(trifluoromethyl)benzamide], not below 1000 nM.
Consider `CC(C)[C@@H](NC(=O)c1cc(C(F)(F)F)ccc1F)C(=O)N1CCC2(CC1)C(=O)N(C)C(=O)N2CC1CC1` [Example 75, (R)—N-(1-(1-(Cyclopropylmethyl)-3-methyl-2,4-dioxo-1,3,8-triazaspiro[4.5]decan-8-yl)-3-methyl-1-oxobutan-2-yl)-2-fluoro-5-(trifluoromethyl)benzamide], for which the IC50 was not below 1000 nM.
Regarding `CC(C)[C@@H](NC(=O)c1cc(C(F)(F)F)ccc1F)C(=O)N1CCC2(CC1)C(=O)N(C)C(=O)N2C1CC1` [Example 76, (R)—N-(1-(1-Cyclopropyl-3-methyl-2,4-dioxo-1,3,8-triazaspiro[4.5]decan-8-yl)-3-methyl-1-oxobutan-2-yl)-2-fluoro-5-(trifluoromethyl)benzamide], the half-maximal inhibitory concentration (IC50) was 500 to 1000 nM.
Turning to `CC(C)[C@@H](NC(=O)c1cc(C(F)(F)F)ccc1F)C(=O)N1CCC2(CC1)C(=O)N(C)C(=O)N2C1CCOCC1` [Example 77, (R)-2-Fluoro-N-(3-methyl-1-(3-methyl-2,4-dioxo-1-(tetrahydro-2H-pyran-4-yl)-1,3,8-triazaspiro[4.5]decan-8-yl)-1-oxobutan-2-yl)-5-(trifluoromethyl)benzamide], the IC50 is 500 to 1000 nM.
Next, `CC(C)[C@@H](NC(=O)c1cc(C(F)(F)F)ccc1F)C(=O)N1CCC2(CC1)C(=O)N(C)C(=O)N2[C@@H](C)c1ccccc1` [Example 78, 2-Fluoro-N—((R)-3-methyl-1-(3-methyl-2,4-dioxo-1-((S)-1-phenylethyl)-1,3,8-triazaspiro[4.5]decan-8-yl)-1-oxobutan-2-yl)-5-(trifluoromethyl)benzamide]: not below 1000 nM; `CC(C)[C@@H](NC(=O)c1cc(C(F)(F)F)ccc1F)C(=O)N1CCC2(CC1)C(=O)N(C)C(=O)N2CC1CCOCC1` [Example 79, (R)-2-Fluoro-N-(3-methyl-1-(3-methyl-2,4-dioxo-1-((tetrahydro-2H-pyran-4-yl)methyl)-1,3,8-triazaspiro[4.5]decan-8-yl)-1-oxobutan-2-yl)-5-(trifluoromethyl)benzamide]: 500 to 1000 nM; `CC(C)[C@@H](NC(=O)c1cc(C(F)(F)F)ccc1F)C(=O)N1CCC2(CC1)C(=O)N(C)C(=O)N2[C@H](C)c1ccccc1` [Example 80, 2-Fluoro-N—((R)-3-methyl-1-(3-methyl-2,4-dioxo-1-((R)-1-phenylethyl)-1,3,8-triazaspiro[4.5]decan-8-yl)-1-oxobutan-2-yl)-5-(trifluoromethyl)benzamide]: not below 1000 nM.
With `CC(C)[C@@H](NC(=O)c1cc(C(F)(F)F)ccc1F)C(=O)N1CCC2(CC1)C(=O)N(C)C(=O)N2c1ccc(OCC2CNC2)cc1` [Example 81, (R)—N-(1-(1-(4-(Azetidin-3-ylmethoxy)phenyl)-3-methyl-2,4-dioxo-1,3,8-triazaspiro[4.5]decan-8-yl)-3-methyl-1-oxobutan-2-yl)-2-fluoro-5-(trifluoromethyl)benzamide trifluoroacetic Acid Salt], the IC50 is not below 1000 nM.
The result for `CC(C)[C@@H](NC(=O)c1cc(C(F)(F)F)ccc1F)C(=O)N1CCC2(CC1)C(=O)N(C)C(=O)N2c1ccc(OCC#N)cc1` [Example 82, (R)—N-(1-(1-(4-(cyanomethoxy)phenyl)-3-methyl-2,4-dioxo-1,3,8-triazaspiro[4.5]decan-8-yl)-3-methyl-1-oxobutan-2-yl)-2-fluoro-5-(trifluoromethyl)benzamide] reads 500 to 1000 nM; that for `CC(C)[C@@H](NC(=O)c1cc(C(F)(F)F)ccc1F)C(=O)N1CCC2(CC1)C(=O)N(C)C(=O)N2c1ccc(OCC2COC2)cc1` [Example 83, (R)-2-Fluoro-N-(3-methyl-1-(3-methyl-1-(4-(oxetan-3-ylmethoxy)phenyl)-2,4-dioxo-1,3,8-triazaspiro[4.5]decan-8-yl)-1-oxobutan-2-yl)-5-(trifluoromethyl)benzamide], less than 500 nM; that for `CC(C)[C@@H](NC(=O)c1cc(C(F)(F)F)ccc1F)C(=O)N1CCC2(CC1)C(=O)N(C)C(=O)N2c1ccc(OCCO)cc1` [Example 84, (R)-2-Fluoro-N-(1-(1-(4-(2-hydroxyethoxy)phenyl)-3-methyl-2,4-dioxo-1,3,8-triazaspiro[4.5]decan-8-yl)-3-methyl-1-oxobutan-2-yl)-5-(trifluoromethyl)benzamide], less than 500 nM.
As for `CC(C)[C@@H](NC(=O)c1cc(C(F)(F)F)ccc1F)C(=O)N1CCC2(CC1)C(=O)N(C)C(=O)N2c1ccc(NC2CNC2)cc1` [Example 86, (R)—N-(1-(1-(4-(Azetidin-3-ylamino)phenyl)-3-methyl-2,4-dioxo-1,3,8-triazaspiro[4.5]decan-8-yl)-3-methyl-1-oxobutan-2-yl)-2-fluoro-5-(trifluoromethyl)benzamide trifluoroacetic Acid Salt], the IC50 is not below 1000 nM.
Regarding `CC(C)[C@@H](NC(=O)c1cc(C(F)(F)F)ccc1F)C(=O)N1CCC2(CC1)C(=O)N(C)C(=O)N2c1ccc(NC2COC2)cc1` [Example 87, (R)-2-Fluoro-N-(3-methyl-1-(3-methyl-1-(4-(oxetan-3-ylamino)phenyl)-2,4-dioxo-1,3,8-triazaspiro[4.5]decan-8-yl)-1-oxobutan-2-yl)-5-(trifluoromethyl)benzamide], the IC50 is not below 1000 nM.
The result for `CC(C)[C@@H](NC(=O)c1cc(C(F)(F)F)ccc1F)C(=O)N1CCC2(CC1)C(=O)N(C)C(=O)N2Cc1ccc(C#N)cc1` [Example 88, (R)—N-(1-(1-(4-Cyanobenzyl)-3-methyl-2,4-dioxo-1,3,8-triazaspiro[4.5]decan-8-yl)-3-methyl-1-oxobutan-2-yl)-2-fluoro-5-(trifluoromethyl)benzamide] reads less than 500 nM; that for `CC(C)[C@@H](NC(=O)c1cc(C(F)(F)F)ccc1F)C(=O)N1CCC2(CC1)C(=O)N(C)C(=O)N2Cc1ccccc1` [Example 89, (R)—N-(1-(1-Benzyl-3-methyl-2,4-dioxo-1,3,8-triazaspiro[4.5]decan-8-yl)-3-methyl-1-oxobutan-2-yl)-2-fluoro-5-(trifluoromethyl)benzamide], less than 500 nM.
